In patent publication US20060276464A1, “Diarylsulfone sulfonamides and use thereof” (Wyeth, priority 2005, published 2006):
Like-named read-outs stand apart in the source and are kept apart here.

Molecular target: T1, SFRP-1 (Homo sapiens, UniProt Q8N474)
T1 sequence (Q8N474 32-314): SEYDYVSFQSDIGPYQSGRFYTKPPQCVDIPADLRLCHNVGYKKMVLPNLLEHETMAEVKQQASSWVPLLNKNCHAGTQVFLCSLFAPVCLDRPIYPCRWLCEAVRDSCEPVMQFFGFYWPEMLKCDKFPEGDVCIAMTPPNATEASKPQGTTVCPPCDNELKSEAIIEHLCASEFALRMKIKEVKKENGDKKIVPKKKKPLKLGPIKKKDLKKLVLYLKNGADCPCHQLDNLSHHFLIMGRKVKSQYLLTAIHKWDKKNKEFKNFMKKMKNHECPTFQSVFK
Assay: Cell-based assay for in vitro measurement of SFRP-1/SARP2 antagonist activity (U2OS cells co-transfected with 16x TCF-tk-Luciferase reporter, Wnt and hSFRP-1);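 further: U2OS cells co-transfected with a TCF-tk luciferase reporter, a Wnt vector, hSFRP-1 or empty vector and CMV-βgal, luciferase luminescence read in cell lysates alongside βgal activity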
Details: U2OS

[1] = read-out: Fold Induction with SFRP-1, Conc 30 μM, with SFRP-1, fold induction over SFRP-1 control, single dose
[2] = read-out: Fold Induction without SFRP-1, Conc 30 μM, without SFRP-1, single dose
[3] = read-out: Fold Induction with SFRP-1, Conc 15 μM, single dose, luciferase reporter, fold induction over SFRP-1 control, cells with SFRP-1
[4] = read-out: Fold Induction without SFRP-1, Conc 15 μM, single dose, luciferase reporter, cells without SFRP-1 (specificity control)
[5] = read-out: Fold Induction with SFRP-1, Conc 15 μM, with SFRP-1, fold induction over SFRP-1 control, single dose
[6] = read-out: Fold Induction without SFRP-1, Conc 15 μM, without SFRP-1, single dose

Structure (SMILES)	fold induction at 30 µM [1]	fold induction at 30 µM [2]	fold induction at 15 µM [5]	fold induction at 15 µM [6]	also measured
CCN(CC)CCCNS(=O)(=O)c1cccc(S(=O)(=O)c2ccccc2)c1 [Example 198, N-[3-(diethylamino)propyl]-3-(phenylsulfonyl)benzenesulfonamide]	1.1	1.3			
CCN(CC)CCNS(=O)(=O)c1cccc(S(=O)(=O)c2ccccc2)c1 [Example 193, N-[2-(diethylamino)ethyl]-3-(phenylsulfonyl)benzenesulfonamide]	1.2	1.3			
Cc1ccc(S(=O)(=O)c2ccc(F)cc2)cc1S(=O)(=O)N(C(=O)C1CC1)C1CCN(C(=O)C2CC2)CC1 [Example 602, N-[1-(cyclopropylcarbonyl)piperidin-4-yl]-N-({5-[(4-fluorophenyl)sulfonyl]-2-methylphenyl}sulfonyl)cyclopropanecarboxamide]					fold induction at 15 µM [3]: 1.3; fold induction at 15 µM [4]: 1.1
COc1ccc(S(=O)(=O)c2ccccc2)cc1S(=O)(=O)NCCCN1CCCC1 [Example 243, 2-methoxy-5-(phenylsulfonyl)-N-(3-pyrrolidin-1-ylpropyl)benzenesulfonamide]			2.4	1.9	
Cc1cc(C)cc(S(=O)(=O)c2ccc(C)c(S(=O)(=O)NCCCn3ccnc3)c2)c1 [Example 343, 5-[(3,5-dimethylphenyl)sulfonyl]-N-[3-(1H-imidazol-1-yl)propyl]-2-methylbenzenesulfonamide]			2.8	1	
O=S(=O)(NCCc1ccccn1)c1cc(S(=O)(=O)c2ccc(F)cc2)ccc1C1CCCCC1 [Example 460, 2-cyclohexyl-5-[(4-fluorophenyl)sulfonyl]-N-(2-pyridin-2-ylethyl)benzenesulfonamide]			1.1	1	
Cc1ccc(S(=O)(=O)c2ccccn2)cc1S(=O)(=O)NCCCn1ccnc1 [Example 378, N-[3-(1H-imidazol-1-yl)propyl]-2-methyl-5-(pyridin-2-ylsulfonyl)benzenesulfonamide]			1.7	1.1	
COc1ccc(S(=O)(=O)c2ccccc2)cc1S(=O)(=O)NC[C@H](C)c1ccccc1 [Example 271, 2-methoxy-N-[(2R)-2-phenylpropyl]-5-(phenylsulfonyl)benzenesulfonamide]			1.7	1.2	
Cc1ccc(S(=O)(=O)c2ccccc2)cc1S(=O)(=O)NCCc1c[nH]cn1 [Example 210, N-[2-(1H-imidazol-4-yl)ethyl]-2-methyl-5-(phenylsulfonyl)benzenesulfonamide]			2.5	1	
Cc1ccc(S(=O)(=O)c2ccccc2)cc1S(=O)(=O)NCC(F)(F)F [Example 401, 2-methyl-5-(phenylsulfonyl)-N-(2,2,2-trifluoroethyl)benzenesulfonamide]			1.6	1.1	
Cc1ccc(S(=O)(=O)c2ccc(N3CCCC3)cc2)cc1S(=O)(=O)NCCCn1ccnc1 [Example 305, N-[3-(1H-imidazol-1-yl)propyl]-2-methyl-5-[(4-pyrrolidin-1-ylphenyl)sulfonyl]benzenesulfonamide]			1.8	1	
Cc1ccc(S(=O)(=O)c2ccccc2)cc1S(=O)(=O)NC1CCN(C(=O)Oc2ccc(F)cc2)CC1 [Example 500, 4-fluorophenyl 4-({[2-methyl-5-(phenylsulfonyl)phenyl]sulfonyl}amino)piperidine-1-carboxylate]					fold induction at 15 µM [3]: 1.6; fold induction at 15 µM [4]: 0.8
COc1ccc(CCNS(=O)(=O)c2cc(S(=O)(=O)c3ccc(C)cc3)ccc2C)cc1OC [Example 120, N-[2-(3,4-dimethoxyphenyl)ethyl]-2-methyl-5-[(4-methylphenyl)sulfonyl]benzenesulfonamide]	1.2	0.5			
O=S(=O)(NC1CCOCC1)c1cc(S(=O)(=O)c2ccc(F)cc2)ccc1Cl [Example 622, 2-chloro-5-[(4-fluorophenyl)sulfonyl]-N-(tetrahydro-2H-pyran-4-yl)benzenesulfonamide]					fold induction at 15 µM [3]: 2.7; fold induction at 15 µM [4]: 1.1
COCCCNS(=O)(=O)c1cccc(S(=O)(=O)c2ccccc2)c1 [Example 195, N-(3-methoxypropyl)-3-(phenylsulfonyl)benzenesulfonamide]	1.2	0.9			
COc1ccccc1CCNS(=O)(=O)c1cc(S(=O)(=O)c2ccccc2)ccc1C [Example 32, N-[2-(2-methoxyphenyl)ethyl]-2-methyl-5-(phenylsulfonyl)benzenesulfonamide]	0.5	0.5			
Cc1ccc(S(=O)(=O)c2ccc(F)cc2)cc1S(=O)(=O)NC1CCNCC1 [Example 576, 5-[(4-fluorophenyl)sulfonyl]-2-methyl-N-piperidin-4-ylbenzenesulfonamide]					fold induction at 15 µM [3]: 3; fold induction at 15 µM [4]: 1.2
COc1ccc(S(=O)(=O)c2ccccc2)cc1S(=O)(=O)NCCc1c[nH]cn1 [Example 236, N-[2-(1H-imidazol-4-yl)ethyl]-2-methoxy-5-(phenylsulfonyl)benzenesulfonamide]			1.2	1	
Cc1ccc(S(=O)(=O)c2ccc(C)c(S(=O)(=O)NCCc3ccccc3)c2)cc1 [Example 116, 2-methyl-5-[(4-methylphenyl)sulfonyl]-N-(2-phenylethyl)benzenesulfonamide]	0.9	0.4			
O=C(NCCNS(=O)(=O)c1cc(S(=O)(=O)c2ccccc2)ccc1C(F)(F)F)c1ccc(Br)cc1 [Example 779, 4-Bromo-N-[2-({[5-(phenylsulfonyl)-2-(trifluoromethyl)phenyl]sulfonyl}amino)ethyl]benzamide]					fold induction at 10 µM (read-out: Fold Induction with SFRP-1, U2OS cells, single dose 10 μM, luciferase reporter, fold induction over SFRP-1 control): 1
Cc1ccc(S(=O)(=O)c2ccccc2)c(C)c1S(=O)(=O)NCCc1ccccn1 [Example 472, 2,6-dimethyl-3-(phenylsulfonyl)-N-(2-pyridin-2-ylethyl)benzenesulfonamide]			0.9	0.9	
O=S(=O)(NCCc1c[nH]cn1)c1cccc(S(=O)(=O)c2ccccc2)c1 [Example 189, N-[2-(1H-imidazol-4-yl)ethyl]-3-(phenylsulfonyl)benzenesulfonamide]	1.3	1			
O=S(=O)(NCCCn1ccnc1)c1cccc(S(=O)(=O)c2ccccc2)c1 [Example 199, N-[3-(1H-imidazol-1-yl)propyl]-3-(phenylsulfonyl)benzenesulfonamide]	1.1	1			
COc1ccc(S(=O)(=O)c2ccccc2)cc1S(=O)(=O)NCCc1ccncc1 [Example 235, 2-methoxy-5-(phenylsulfonyl)-N-(2-pyridin-4-ylethyl)benzenesulfonamide]			1.2	0.9	
CCc1ccc(S(=O)(=O)c2ccccc2)cc1S(=O)(=O)NCCc1ccc(S(N)(=O)=O)cc1 [Example 145, N-{2-[4-(aminosulfonyl)phenyl]ethyl}-2-ethyl-5-(phenylsulfonyl)benzenesulfonamide]			2.2	1.2	
Cc1ccc(S(=O)(=O)c2ccccc2)cc1S(=O)(=O)NCC(O)c1ccccc1 (stereo not drawn) [Example 386, N-(2-hydroxy-2-phenylethyl)-2-methyl-5-(phenylsulfonyl)benzenesulfonamide]			1.8	1	
